Results: paper PMC5062169, “Structural basis for ligand recognition by a Cache chemosensory domain that mediates carboxylate sensing in Pseudomonas syringae” (Scientific Reports, 2016)
Read-outs that look alike come from different tables or passages of the source. Peptide text beside a SMILES is read from it.

What was measured:
[1] = molecular target: T1, PscD (PscD-SD, Cache sensor domain of chemoreceptor PscD) (Pseudomonas syringae, UniProt A0ABY1U976); settings: Biolog plate compound, exact concentration unknown; binder
T1 construct: gene CFBP3846_03581; sensor domain, Gln31-Trp188, N-terminal His6 tag
T1 sequence (A0ABY1U976 31-188): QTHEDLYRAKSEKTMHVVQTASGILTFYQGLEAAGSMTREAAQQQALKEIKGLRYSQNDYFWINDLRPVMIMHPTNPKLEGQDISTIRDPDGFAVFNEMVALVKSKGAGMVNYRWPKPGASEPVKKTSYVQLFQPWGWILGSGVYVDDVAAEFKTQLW
Excerpt: (§1) We used high-throughput fluorescence thermal shift (FTS) assays (as described previously[16]) to screen for potential ligands of PscD-SD. FTS assays are based on the principle that ligands stabilise proteins upon binding, causing an increase in the melting temperature of the protein[22][23]. Binding can therefore be rapidly screened by measuring the difference in the temperature midpoint of unfolding (ΔTm) of a protein in the presence and absence of potential ligands. In our FTS assays, the Tm was measured by monitoring an increase in fluorescence of a dye with affinity for hydrophobic parts of the protein (i.e. SYPRO Orange), which are exposed as the protein unfolds. We screened the recombinant PscD-SD protein in FTS assays against the compounds in Biolog Phenotype Microarray (PM) plates 1 and 2 (Supplementary Tables 1 and 2). Each plate contains 95 different compounds (e.g., organic acids, sugars) and a water (no ligand) control. For use in FTS assays, the compounds were resuspended directly in water, thus generating a library of biologically relevant potential ligands. […] Fluorescent thermal shift (FTS) assays were conducted as reported previously. PscD-SD was screened for potential ligands against Biolog Phenotype Microarray (PM) plates 1 and 2 (Biolog, Hayward, CA, USA). For initial qualitative, high-throughput screening, ligands were prepared by dissolving Biolog PM compounds in 50 μL of water (each) to obtain a final concentration of approximately 10–20 mM (the exact concentrations vary from well-to-well). Screens were set up in Lightcycler 480 multiwell plates (Roche Diagnostics, Auckland, NZ) with 20 μM protein, a 5x concentration of SYPRO orange (Life Technologies, Carlsbad, CA, USA) and 5 μL of the test compound (i.e. resuspended Biolog ligands) added to each well. The plate was covered with Lightcycler 480 sealing film (Roche Diagnostics) and fluorescence signal was monitored as the temperature was increased from 20 °C to 80 °C at a rate of 1.2 °C.min^−1 in a Lightcycler 480 (Roche Diagnostics). Initial hits were further tested using known concentrations (0, 1, 2, 5 and 10 mM) of each potential ligand to confirm binding. The ligands were prepared as 10x stocks, 2 μL were added to each well, and the experiments were conducted as described above. The first derivative values (−dF/dt) from the raw fluorescence data were used to determine the melting temperature (Tm). Three biological replicates (from independently cultured and purified batches of protein) were performed for each plate screened.

[2] = molecular target: T2, PscD (PscD-SD, Cache sensor domain of chemoreceptor PscD) (Pseudomonas syringae, UniProt A0ABY1U976); assay: ITC; thermal shift; assay type: binding
T2 construct: gene CFBP3846_03581; sensor domain, Gln31-Trp188, N-terminal His6 tag

[3] = molecular target: T2, PscD (PscD-SD, Cache sensor domain of chemoreceptor PscD); assay: ITC; X-ray crystal structure (propionate soak); thermal shift; assay type: binding
[4] = molecular target: T1, PscD (PscD-SD, Cache sensor domain of chemoreceptor PscD); set-up: fluorescence thermal shift (SYPRO Orange) screen of Biolog PM1/PM2 compounds, delta Tm; settings: Biolog plate compound, exact concentration unknown; binder
Excerpt: as §1

| Structure (SMILES) | Δ Tm [1] [°C] | further results |
| --- | --- | --- |
| O=c1[nH]cnc2c1ncn2[C@@H]1O[C@H](CO)[C@@H](O)[C@H]1O [Inosine] | 0.15 ± 0.05 | – |
| COC(=O)C(C)=O [Methyl Pyruvate] | 0.48 ± 0.13 | – |
| OC[C@H]1O[C@H](O[C@H]2[C@H](O)[C@@H](O)[C@H](O)O[C@@H]2CO)[C@H](O)[C@@H](O)[C@@H]1O [Maltose] | 0.20 ± 0.03 | – |
| OC[C@@H](O)[C@@H](O)[C@H](O)[C@H](O)CO [D-Mannitol] | 0.17 ±0.05 | – |
| CC(=O)O [acetate] | – | Kd ([2]; read-out: Kd): 31 µM |
| C[C@H](N)C(=O)O [L-Alanine] | 0.10 ± 0.03 | – |
| O=P(O)(O)O[C@H]1O[C@H](CO)[C@@H](O)[C@H](O)[C@H]1O [D-Glucose-1-Phosphate] | 0.10 ± 0.05 | – |
| C[C@H](O)[C@@H](O)[C@@H](O)[C@H](O)C=O [L-Fucose] | 0.12 ± 0.05 | – |
| CCC(=O)O [propionate] | 2.66 ± 0.11 | Kd [3]: 101 µM |
| N[C@@H](CC(=O)O)C(=O)O [L-Aspartic Acid] | 0.17 ± 0.05 | – |
| O=CO [Formic Acid] | 0.20 ±0.03 | – |
| NCC(=O)N[C@@H](CCC(=O)O)C(=O)O [Glycyl-L-Glutamic Acid] (H-Gly-Glu-OH) | 0.00 ± 0.00 | – |
| O=C(O)Cc1ccc(O)cc1 [p-Hydroxy Phenyl Acetic Acid] | 0.15 ± 0.04 | – |
| CC(=O)N[C@@H]1[C@@H](O)[C@H](O)[C@@H](CO)O[C@@H]1O [N-Acetyl-D-Glucosamine] | 0.10 ± 0.05 | – |
| CCC(=O)C(=O)O [α-Keto-Butyric Acid] | 0.17 ± 0.05 | – |
| CO[C@@H]1O[C@H](CO)[C@@H](O)[C@H](O)[C@H]1O [β-Methyl-D-Glucoside] | 0.07 ± 0.04 | – |
| O[C@@H]1[C@@H](O)[C@@H](O)CO[C@H]1O [L-Arabinose] | 0.05 ± 0.07 | – |
| OC[C@@H](O)[C@@H](O)[C@H](O)[C@@H](O)CO [D-Sorbitol] | 0.05 ± 0.07 | – |
| O[C@@H]1[C@H](O)[C@H](O)CO[C@H]1O [D-Ribose] | 0.12 ±0.05 | – |
| C[C@H](O)C(=O)O [L-Lactic Acid] | 0.12 ±0.03 | – |
| NCC(=O)N1CCC[C@H]1C(=O)O [Glycyl-L-Proline] (H-Gly-Pro-OH) | 0.00 ± 0.00 | – |
| CC(=O)CC(=O)O [Acetoacetic Acid] | 0.63 ± 0.05 | – |
| O=C(CO)[C@@H](O)[C@H](O)[C@H](O)CO [D-Fructose] | 0.17 ± 0.05 | – |
| CC(=O)C(=O)O [pyruvate] | 1.01 ± 0.03 | Kd ([2]; read-out: Kd): 356 µM |

| Structure (SMILES) | Δ Tm [1] [°C] | further results |
| --- | --- | --- |
| C[C@@H](N)C(=O)O [D-Alanine] | 0.12 ± 0.03 | – |
| C[C@H](N)C(=O)NCC(=O)O [L-Alanyl-Glycine] (H-Ala-Gly-OH) | 0.07 ± 0.08 | – |
| N[C@@H](C(=O)O)[C@@H](O)[C@H](O)[C@H](O)CO [D-Glucosaminic Acid] | 0.10 ± 0.05 | – |
| OC[C@H]1OC(O)[C@@H](O)[C@@H](O)[C@@H]1O (stereo partly drawn) [D-Mannose] | 0.17 ± 0.05 | – |
| O=C(O)Cc1cccc(O)c1 [m-Hydroxy Phenyl Acetic Acid] | 0.10 ± 0.05 | – |
| O=C(O)CC(Br)C(=O)O (stereo not shown) [Bromo Succinic Acid] | 0.05 ± 0.10 | – |
| O=C(O)[C@@H]1CCCN1 [L-Proline] | 0.07 ± 0.04 | – |
| NCC(=O)N[C@@H](CC(=O)O)C(=O)O [Glycyl-L-Aspartic Acid] (H-Gly-Asp-OH) | 0.00 ± 0.00 | – |
| O=C[C@H](O)[C@H](O)[C@@H](O)CO [L-Lyxose] | 0.28 ± 0.05 | – |
| N[C@@H](CO)C(=O)O [L-Serine] | 0.10 ± 0.05 | – |
| O=C(O)C[C@@H](O)C(=O)O [D-Malic Acid] | 0.17 ± 0.05 | – |
| C[C@@H](O)[C@H](N)C(=O)O [L-Threonine] | 0.12 ± 0.05 | – |
| CC(O)CO (stereo not shown) [1,2-Propanediol] | 0.12 ± 0.05 | – |
| CCC(O)C(=O)O (stereo not drawn) [α-Hydroxy Butyric Acid] | 0.17 ± 0.05 | – |
| O=C(O)CC(CC(=O)O)C(=O)O [Tricarballylic Acid] | -0.03 ± 0.05 | – |
| Cc1cn([C@H]2C[C@H](O)[C@@H](CO)O2)c(=O)[nH]c1=O [Thymidine] | 0.15 ± 0.05 | – |
| OC[C@H]1O[C@H](O)[C@H](O)[C@@H](O)[C@@H]1O [α-D-Glucose] | 0.12 ± 0.03 | – |
| NCCc1ccccc1 [Phenylethyl-amine] | 0.17 ± 0.05 | – |
| NC(=O)C[C@H](N)C(=O)O [L-Asparagine] | 0.00 ± 0.00 | – |
| Nc1ncnc2c1ncn2[C@H]1C[C@H](O)[C@@H](CO)O1 [2-Deoxy-Adenosine] | 0.17 ± 0.05 | – |
| NCCc1ccc(O)cc1 [Tyramine] | 0.12 ± 0.03 | – |
| NC(=O)CC[C@H](N)C(=O)O [L-Glutamine] | 0.00 ± 0.00 | – |
| NCCO [2-Aminoethanol] | 0.15 ± 0.05 | – |
| OCC(O)CO [Glycerol] | 0.10 ± 0.05 | – |

| Structure (SMILES) | Δ Tm [1] [°C] | further results |
| --- | --- | --- |
| OC[C@H]1O[C@@H](O[C@@H]2[C@@H](CO)OC(O)(CO)[C@H]2O)[C@H](O)[C@@H](O)[C@H]1O (mixture of isomers) [Lactulose] | 0.20 ± 0.03 | – |
| O=C[C@H](O)[C@@H](O)[C@@H](O)[C@H](O)CO [D-Galactose] | 0.17 ± 0.02 | – |
| O=C(O)CCC(=O)C(=O)O [α-Keto-Glutaric Acid] | 0.17 ± 0.02 | – |
| NC(=O)[C@H]1O[C@@H](O)[C@H](O)[C@@H](O)[C@@H]1O [Glucuronamide] | 0.17 ± 0.06 | – |
| O=C(O)CCC(=O)O [Succinic Acid] | 0.10 ± 0.03 | – |
| O=c1ccn([C@@H]2O[C@H](CO)[C@@H](O)[C@H]2O)c(=O)[nH]1 [Uridine] | 0.15 ± 0.05 | – |
| OC[C@H]1O[C@@](CO)(O[C@H]2O[C@H](CO)[C@@H](O)[C@H](O)[C@H]2O)[C@@H](O)[C@@H]1O [Sucrose] | 0.17 ± 0.05 | – |
| N[C@@H](CCC(=O)O)C(=O)O [L-glutamic acid] | 0.15 ±0.05 | – |
| O=C(O)c1ccc(O)cc1 [4-Hydroxy Benzoic Acid] | – | Δ Tm [4]: 0.03 ± 0.03 °C |
| CC(=O)N[C@H]1[C@@H](O)[C@H](O)[C@@H](CO)O[C@H]1O [N-Acetyl-β-D-Mannosamine] | 0.07 ± 0.04 | – |
| C[C@H](N)C(N)=O [L-Alaninamide] | – | Δ Tm [4]: 0.08 ± 0.00 °C |
| O=C(O)[C@@H](O)[C@H](O)[C@H](O)[C@@H](O)C(=O)O [Mucic Acid] | 0.07 ± 0.04 | – |
| COC(=O)CCC(=O)O [Mono Methyl Succinate] | 0.12 ± 0.03 | – |
| OC[C@H]1O[C@@H](O[C@H]2[C@H](O)[C@@H](O)[C@@H](O)O[C@@H]2CO)[C@H](O)[C@@H](O)[C@H]1O [α-D-Lactose] | 0.12 ± 0.03 | – |
| Nc1ncnc2c1ncn2[C@@H]1O[C@H](CO)[C@@H](O)[C@H]1O [Adenosine] | 0.15 ± 0.05 | – |
| N[C@H](CO)C(=O)O [D-Serine] | 0.00 ± 0.00 | – |
| O=C(O)CO [glycolate] | 1.13 ± 0.00 | Kd [2]: 23 µM |
| NCCCCN [Putrescine] | – | Δ Tm [4]: 0.03 ± 0.05 °C |
| CC(=O)N[C@@H](CCC(=O)O)C(=O)O [N-Acetyl-L-Glutamic Acid] | – | Δ Tm [4]: 0.08 ± 0.00 °C |
| O=C(O)[C@H](O)[C@@H](O)[C@H](O)[C@H](O)CO [D-Gluconic Acid] | 0.17 ± 0.02 | – |
| OC[C@@H](O)[C@@H](O)[C@@H](O)CO [Adonitol] | 0.12 ± 0.03 | – |
| OC[C@@H](O)C(O)[C@H](O)CO [D-Arabitol] | – | Δ Tm [4]: 0.00 ± 0.05 °C |
